{"source": "patent US5344941A", "about": "“Water soluble salts of thionaphthene-2-carboxylic acid” (priority 1992, dated 1994)", "key": {"[1]": {"test": "pH of a 5% aqueous solution of the salt", "type": "physicochemical"}, "[2]": {"test": "Solubility in water and organic solvents"}, "mice [3]": {"test_system": "mice", "test": "Acute toxicity (LD50) by oral route and by injection", "settings": "oral vs intraperitoneal"}, "[4]": {"test": "Acute toxicity (LD50) by oral route and by injection", "settings": "mouse, in vivo"}, "[5]": {"test_system": "rats made hypercalcemic by the injection of Leydig-cell carcinoma-tumor material", "test": "Reduction of blood calcium levels of rats made hypercalcemic by injection of Leydig-cell carcinoma-tumor material", "type": "in vivo", "method": "The following tables (Experiments I and II) illustrate the effectiveness of the present invention in reducing the blood calcium levels of rats made hypercalcemic by the injection of Leydig-cell carcinoma-tumor material. For details of the methodology employed in these studies, see: Johannesson et al., Endocrinology 117/4: 1508-1511 (1985). Normal calcium blood levels are in the range of 9-10 mg/dL.\nIn the table, n=number of rats evaluated at each dosage and in controls while S.D.=standard deviation. These higher initial values reflect Leydig cell-induced hypercalcemia. Data for final calcium levels show the decreases in calcium levels produced following administration of the lysine salt of TNCA."}, "[6]": {"settings": "in vivo"}, "[7]": {"settings": "in vivo", "text": "The utility of the salts, in a clinical treating sense, is equivalent to TNCA itself but they are far more useful, practically, for the reasons of amelioration of side effects and the high blood levels available via the oral route.", "remark": "listed apart in the source"}, "mice [8]": {"test_system": "mice", "settings": "cited from earlier work"}, "pK": {"test": "pK", "type": "physicochemical"}}, "note": "Structures can show the parent of a compound that is named as a salt.", "data": [{"smiles": "O=C(O)c1cc2ccccc2s1", "note": "[Example 2]", "values": [{"measurement": "pH of a 5% aqueous solution", "setting": "[1]", "value": 6.77}, {"measurement": "Water solubility (in words)", "setting": "[2]; water", "value": "water-soluble"}]}, {"smiles": "O=C(O)c1cc2ccccc2s1", "note": "[Example 3, Ammonium salt of TNCA]", "values": [{"measurement": "pH of a 5% aqueous solution", "setting": "[1]", "value": 6.05}, {"measurement": "Water solubility (in words)", "setting": "[2]; water", "value": "water-soluble"}]}, {"smiles": "O=C(O)c1cc2ccccc2s1", "note": "[Example 7]", "values": [{"measurement": "Water solubility (in words)", "setting": "[2]; water", "value": "water-insoluble"}]}, {"smiles": "C[C@H](N)C(=O)O", "note": "[L-alanine]", "values": [{"measurement": "Water solubility (in words)", "setting": "[2]; water", "value": "No water-soluble reaction product is formed"}]}, {"smiles": "O=C(O)c1cc2ccccc2s1", "note": "[Example 1, Benzo(b)thiophene-2-carboxylic acid L-Lysine salt]", "values": [{"measurement": "LD50 given orally compared to that obtained when administered intraperitoneally", "setting": "mice [3]", "value": "almost equivalent"}, {"measurement": "LD50", "setting": "[4]", "value": "~1300", "unit": "mg/kg"}, {"measurement": "LD50", "setting": "[4]; po", "value": "~1500", "unit": "mg/kg"}, {"measurement": "Initial calcium levels (mean)", "setting": "[5]; Experiment 1, 195 mg/kg group, N=8, initial (before treatment)", "value": 12.28, "unit": "mg/dL"}, {"measurement": "Final calcium levels (mean)", "setting": "[5]; Experiment 1, 195 mg/kg, N=8, control 17.38", "value": 14.85, "unit": "mg/dL"}, {"measurement": "Initial calcium levels (mean)", "setting": "[5]; Experiment 1, 292 mg/kg group, N=9, initial (before treatment)", "value": 13.31, "unit": "mg/dL"}, {"measurement": "Final calcium levels (mean)", "setting": "[5]; Experiment 1, 292 mg/kg, N=9, control 17.38", "value": 11.54, "unit": "mg/dL"}, {"measurement": "Initial calcium (mean)", "setting": "[5]; Experiment 2, 195 mg/kg group, N=6, initial (before treatment)", "value": 14.07, "unit": "mg/dL"}, {"measurement": "Final calcium levels (mean)", "setting": "[5]; Experiment 2, 195 mg/kg, N=6, control 18.03", "value": 13.27, "unit": "mg/dL"}, {"measurement": "Initial calcium (mean)", "setting": "[5]; Experiment 2, 292 mg/kg group, N=6, initial (before treatment)", "value": 14.68, "unit": "mg/dL"}, {"measurement": "Final calcium levels (mean)", "setting": "[5]; Experiment 2, 292 mg/kg, N=6, control 18.03", "value": 11.00, "unit": "mg/dL"}, {"measurement": "Initial calcium (mean)", "setting": "[5]; Experiment 2, 389 mg/kg group, N=10, initial (before treatment)", "value": 13.80, "unit": "mg/dL"}, {"measurement": "Final calcium levels (mean)", "setting": "[5]; Experiment 2, 389 mg/kg, N=8, control 18.03", "value": 10.16, "unit": "mg/dL"}, {"measurement": "Decrease in calcium levels, dose relation", "setting": "[5]; Experiments 1 and 2", "value": "clearly does-related in both experiments"}, {"measurement": "Type of calcium-lowering activity", "setting": "[5]; Experiments 1 and 2", "value": "anti-hypercalcemic, rather than hypocalcemic"}, {"measurement": "Serum calcium levels following treatment", "setting": "[5]; relative to pretreatment / normal levels", "value": "returned to pretreatment levels, but not to below normal values"}, {"measurement": "Gastric irritation", "setting": "[6]", "value": "prevents the adverse effects associated with gastric irritation"}, {"measurement": "pH of a 5% aqueous solution", "setting": "[1]", "value": 5.75}, {"measurement": "Solubility in ethanol (ethyl alcohol)", "setting": "[2]", "value": "insoluble"}, {"measurement": "Solubility in methanol (methyl alcohol)", "setting": "[2]", "value": "insoluble"}, {"measurement": "Solubility in toluene", "setting": "[2]; toluene", "value": "insoluble"}, {"measurement": "solubility", "setting": "[2]; water", "value": 700, "unit": "mg/mL"}, {"measurement": "Absorption from the gastrointestinal tract / following oral administration", "setting": "[7]", "value": "readily absorbed following oral administration"}]}, {"smiles": "O=C(O)c1cc2ccccc2s1", "note": "[Example 5, Piperidine salt of TNCA]", "values": [{"measurement": "pH of a 5% aqueous solution", "setting": "[1]", "value": 6.4}, {"measurement": "Water solubility (in words)", "setting": "[2]; water", "value": "moderately water-soluble"}]}, {"smiles": "O=C(O)c1cc2ccccc2s1", "note": "[Example 6, Sodium salt of TNCA]", "values": [{"measurement": "Water solubility (in words)", "setting": "[2]; water", "value": "water-insoluble"}, {"measurement": "Water solubility (in words)", "setting": "[2]; water, listed as sodium", "value": "mainly insoluble in water"}]}, {"smiles": "O=C(O)c1cc2ccccc2s1", "note": "[TNCA, benzo(b)thiophene-2-carboxylic acid, reference compound]", "values": [{"measurement": "LD50 by injection", "setting": "mice [8]; by injection, value repeated in text", "value": 1450, "unit": "mg/kg"}, {"measurement": "LD50", "setting": "mice [8]; mice, oral, TNCA in gum tragacanth", "value": 3600, "unit": "mg/kg"}, {"measurement": "Gastric irritation", "setting": "[6]", "value": "causes gastric irritation, resulting in vomiting and bleeding"}, {"measurement": "pKa", "setting": "pK", "value": 3.4}, {"measurement": "Solubility in methanol (methyl alcohol)", "setting": "[2]", "value": "soluble in methanol"}, {"measurement": "Absorption from the gastrointestinal tract / following oral administration", "setting": "[7]", "value": "poorly absorbed from the gastrointestinal tracts"}]}, {"smiles": "O=C(O)c1cc2ccccc2s1", "note": "[Example 4, Arginine salt of TNCA]", "values": [{"measurement": "pH of a 5% aqueous solution", "setting": "[1]", "value": 5.8}, {"measurement": "Solubility in ethanol (ethyl alcohol)", "setting": "[2]", "value": "soluble"}, {"measurement": "Solubility in methanol (methyl alcohol)", "setting": "[2]", "value": "soluble"}, {"measurement": "Water solubility (in words)", "setting": "[2]; water", "value": "water-soluble"}]}, {"smiles": "O=C(O)c1cc2ccccc2s1", "note": "[potassium, potassium salt of TNCA]", "values": [{"measurement": "Water solubility (in words)", "setting": "[2]; water", "value": "mainly insoluble in water"}]}]}
